Measured values from patent publication EP2156835A1, “New therapeutic use of drotaverine” (Sanofi-Aventis, priority 2008, dated 2010).

Test system: human isolated detrusor muscle
Experiment: Relaxation of U46619-induced plateau of contraction in human isolated detrusor muscle strips (organ bath)
Conditions: for Emax at 100 µM / EC50: Homo sapiens; for Emax at 100 µM: at the concentration of 100 µM, percent relaxation of 1 µM U46619 plateau, 10 µM forskolin taken as 100% relaxation, read-out: maximal relaxant effect (Emax); for EC50: mean, relaxation of plateau of contraction induced by 1 µM U46619 after priming with 0.1 µM forskolin, CRC 0.03 - 100 µM, non linear regression fit, read-out: pEC50 (-log EC50) (converted)
Experimental: The detrusor muscle was separated from mucosa and adventitia and cut into small strips which were mounted, under 1 g initial tension, in 5 mL glass organ baths containing oxygenated Krebs-Henseleit solution (composition in mM: NaCl 114, KCl 4.7, CaCl2 2.5, MgS04 1.2, KH2PO4 1.2, NaHCO3 25, glucose 11.7) kept at 37°C. Tissues were allowed to equilibrate for at least 60 minutes during which time the Krebs solution was replaced every 15 min. After the stabilization period, a reference contraction to 80 mM KCl was performed on each strip. Tissues having a contraction less than 1 g were discarded. After wash-outs and a further 45 min of re-equilibration, during which the resting tension was adjusted periodically, each strip was primed with 0.1 µM forskolin, an adenylyl cyclise activator, for 10 min then recontracted with 1 µM U46619 for at least 20 min, until a stable plateau of contraction was obtained. Strips having a plateau of contraction less than 0.2 g were discarded. After obtaining a stable plateau of contraction, concentration-responses curves (CRC) to drotaverine and rolipram (0.03 - 100 µM) or the common vehicle (DMSO from 0.003 to 1 % in the organ bath) were performed. At the end of the CRC, the maximal relaxant effect for each strip was determined following application of 10 µM forskolin into the organ baths. Only one CRC to each substance or solvent was tested in a single strip. CRCs were constructed using 8 bladder strips from 4 different patients. Results were expressed as percent relaxation of the plateau of contraction induced by 1 µM U46619, with respect to the maximal effect obtained with 10 µM forskolin taken as 100% relaxation.
All CRCs were fitted by non linear regressions using the software GraphPad Prism® version 4.0 to obtain the following parameters: Emax: Maximal relaxation induced by the tested substance; EC50: the concentration which induces 50% of the maximum effect, expressed as pEC50 (-log EC50). Comparisons of the CRCs were performed with two-way analysis of variance (ANOVA) statistical analysis test and Bonferroni post-test. All differences will be considered statistically significant when the null hypothesis can be rejected at a risk α of less than 0.05.

Compound: CCOc1ccc(C=C2NCCc3cc(OCC)c(OCC)cc32)cc1OCC [drotaverine, 1-[(3,4-diethoxyphenyl)methylene]-6,7-diethoxy-1,2,3,4-tetrahydro-isoquinoline]
- Emax at 100 µM: 80.8 ± 3.07%
- EC50: 32.4 µM
- relaxation of U46619-contracted detrusor strips (from 0.03 to 10 µM): slight relaxation
- relaxation of U46619-induced detrusor muscle contraction (from 30 to 100 µM): significant concentration-dependent relaxation

Compound: COc1ccc(C2CNC(=O)C2)cc1OC1CCCC1 (stereo not shown) [rolipram]
- Emax at 100 µM: 89.5 ± 2.68%
- EC50: 0.151 µM
- relaxation of U46619-induced human detrusor contraction (from 0.03 to 100 µM): significant concentration-dependent relaxation
